Columns and labels:
[1] = DPPH test (antioxidant power); conditions: decrease of DPPH radical peak at 517 nm, spectrophotometry
Procedure: DPPH Test The DPPH test allows determining the antioxidant power by reacting the sample to be analyzed with a solution of DPPH [2,2-diphenyl-1-picrylhydrazyl, PM 394.33, […]] and analyzing the decrease in the peak at 517 of the DPPH^• radical at UV. Antioxidant compounds which are capable of transferring a hydrogen atom to the radical cause a loss of absorbance of the solution. The decrease of the DPPH^• radical peak at 517 nm is then analyzed by spectrophotometry after a predetermined incubation time. This decrease (discoloration) is proportional to the antioxidant load present in the sample. The results can also be expressed as IC50, i.e., the concentration of antioxidant compound which causes an initial 50% decrease in DPPH^•.

[2] = ORAC test (Oxygen Radical Absorbance Capacity); conditions: fluorescence decay under peroxyl radical flow; Trolox as reference standard
Excerpt: ORAC Test The ORAC method (Oxygen Radical Absorbance Capacity) is one of the most common methods for determining radical trapping capacity against peroxyl radicals. The principle of the test is based on the measurement of the decrease in the fluorescence intensity of a fluorescent target molecule (for example fluorescein), under a constant flow of peroxyl radicals, generated by the thermal decomposition of an azo compound. The results are expressed as equivalent Trolox® micromoles, using this compound as the reference standard.

DPPH IC50 [1]: 7.196 ± 0.852 µg/mL
Structure (SMILES): O=C1O[C@H]([C@@H](O)CO)C(O)=C1O [Ascorbic acid]
ORAC [2]: 2900 ± 310 μmol Trolox ® equivalent/g of sample

— patent publication US20240058413A1, “GRAPE SEED EXTRACT PREPARATION PROCESS AND EXTRACTS THUS OBTAINED” (Distillerie Bonollo Umberto - S.P.A. Con Sigla "U.B. S.P.A.", priority 2020, published 2024)
